This note sets out measurements from patent US20240228488A1 (TAKEDA PHARMACEUTICAL COMPANY LIMITED, priority 2021, published 2024).

Bounds are passed on as bounds.

The target of the experiment is human activated kallikrein enzyme (Homo sapiens, UniProt P03952). The experiment in a line: Plasma kallikrein inhibition, fluorogenic PFR-AMC substrate, 500 pM activated kallikrein format. It counts as biochemical. The following applies: 500 pM activated kallikrein, 300 uM PFR-AMC, 30 min preincubation, 10 min reaction; read-out: Primary Dose Response Assay: Average EC50. As to the method: Compounds were evaluated for inhibition of the human activated kallikrein enzyme in two formats of an assay employing a fluorogenic peptide substrate. In one assay format, the concentrations of reagents were as follows: 20 mM Tris pH 7.5, 1 mM EDTA, 150 mM sodium chloride, 0.1% PEG-400, 0.1% Triton X-100, 500 pM activated kallikrein enzyme, 300 uM Pro-Phe-Arg-7-amido-4-methylcoumarin (PFR-AMC) substrate. Prior to reaction initiation with substrate, enzyme and inhibitors were preincubated for 30 min at room temperature. After initiation with substrate, reactions were incubated for 10 min at room temperature and fluorescence emission at 460 nm from 380 nm excitation measured with a microplate reader. In another assay format, the concentrations of reagents were as follows: 20 mM Tris pH 7.5, 1 mM EDTA, 150 mM sodium chloride, 0.1% PEG-400, 0.1% Triton X-100, 5 pM activated kallikrein enzyme, 300 uM PFR-AMC substrate. Prior to reaction initiation with substrate, enzyme and inhibitors were preincubated for 30 min at room temperature. After initiation with substrate, reactions were incubated for 18 hr at room temperature and fluorescence emission at 460 nm from 380 nm excitation measured with a microplate reader.
Chain of human activated kallikrein enzyme (P03952 391-638 limits assumed): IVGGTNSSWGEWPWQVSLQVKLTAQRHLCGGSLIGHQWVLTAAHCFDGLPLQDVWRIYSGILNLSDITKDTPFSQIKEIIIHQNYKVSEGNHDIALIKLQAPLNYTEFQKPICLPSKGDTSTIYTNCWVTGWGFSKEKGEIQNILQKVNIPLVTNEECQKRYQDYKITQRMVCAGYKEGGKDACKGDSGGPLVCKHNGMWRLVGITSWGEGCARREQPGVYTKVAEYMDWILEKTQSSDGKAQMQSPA
Chain of human activated kallikrein enzyme (P03952 20-390 partner limits assumed): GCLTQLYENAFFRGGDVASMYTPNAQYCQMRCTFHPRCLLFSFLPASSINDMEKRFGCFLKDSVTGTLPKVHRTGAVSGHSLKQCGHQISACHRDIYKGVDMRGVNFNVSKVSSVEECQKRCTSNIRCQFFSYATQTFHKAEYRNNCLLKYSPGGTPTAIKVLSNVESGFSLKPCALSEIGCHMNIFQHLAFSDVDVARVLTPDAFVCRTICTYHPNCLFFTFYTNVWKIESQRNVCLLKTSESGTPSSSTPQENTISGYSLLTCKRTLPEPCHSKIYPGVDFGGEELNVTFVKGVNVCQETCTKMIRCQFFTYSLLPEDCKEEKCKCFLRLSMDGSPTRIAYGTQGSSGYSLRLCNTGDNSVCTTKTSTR
Table 49 provides the results of the assay in the format with 500 pM activated kallikrein assay. For the compounds listed in Table 49, the EC50 values are reported according to the following ranges: A≤1.0 nM; 1.0 nM<B≤10 nM; 10 nM<C≤100 nM; 100 nM<D≤1000 nM; 1000 nM<E≤6000 nM; 6000 nM<F.
Table 51 provides comparative plasma kallikrein inhibition potency in the assay format with 500 pM activated kallikrein assay (described in detail in a preceding example). For the compounds listed in Table 51, the EC50 values are reported according to the following ranges: A≤1.0 nM; 1.0 nM<B≤10 nM; 10 nM<C≤100 nM; 100 nM<D≤1000 nM; 1000 nM<E≤6000 nM; 6000 nM<F.
In the case of `COc1cc([C@H]2C[C@@H]2C(=O)Nc2cc(NCc3cn4cc(C5CC5)ccc4n3)ccn2)cc(N)n1` (racemic) [Example 286, rac-(1S*,2S*)-2-(2-amino-6-methoxypyridin-4-yl)-N-(4-(((6-cyclopropylimidazo[1,2-a]pyridin-2-yl)methyl)amino)pyridin-2-yl)cyclopropane-1-carboxamide], the EC50 lay in the range of 10 to 100 nM.

Take `COCCOc1ccc(Cl)cc1[C@H]1C[C@@H]1C(=O)Nc1cc(NCc2cn3cc(C4CC4)ccc3n2)ncn1` (racemic) [Example 310, rac-(1S*,2S*)-2-(5-chloro-2-(2-methoxyethoxy)phenyl)-N-(6-(((6-cyclopropylimidazo[1,2-a]pyridin-2-yl)methyl)amino)pyrimidin-4-yl)cyclopropane-1-carboxamide]: the concentration for a half-maximal effect (EC50) was in the range of 100 to 1000 nM.

For `O=C(Nc1cc(NCc2cn3cc(C4CC4)ccc3n2)ncn1)[C@H]1C[C@@H]1c1cc(Cl)ccc1OC(F)F` (racemic) [Example 311, rac-(1S*,2S*)-2-(5-chloro-2-(difluoromethoxy)phenyl)-N-(6-(((6-cyclopropylimidazo[1,2-a]pyridin-2-yl)methyl)amino)pyrimidin-4-yl)cyclopropane-1-carboxamide], the EC50 fell in the range of 10 to 100 nM.

Take `CCOC(=O)CCOc1ccc(Cl)cc1[C@H]1C[C@@H]1C(=O)Nc1cc(NCc2cn3cc(C4CC4)ccc3n2)ncn1` (racemic) [Example 312, rac-ethyl 3-(4-chloro-2-((1S*,2S*)-2-((6-(((6-cyclopropylimidazo[1,2-a]pyridin-2-yl)methyl)amino)pyrimidin-4-yl)carbamoyl)cyclopropyl)phenoxy)propanoate]: the EC50 lay in the range of 10 to 100 nM.

As to `O=C(Nc1cc(NCc2cn3cc(C4CC4)ccc3n2)ncn1)[C@H]1C[C@@H]1c1cc(Cl)ccc1O` (racemic) [Example 313, rac-(1S*,2S*)-2-(5-chloro-2-hydroxyphenyl)-N-(6-(((6-cyclopropylimidazo[1,2-a]pyridin-2-yl)methyl)amino)pyrimidin-4-yl)cyclopropane-1-carboxamide], the EC50 is 1 to 10 nM.

`COc1ccc(C#N)c([C@H]2C[C@@H]2C(=O)Nc2cc(NCc3cn4cc(C5CC5)ccc4n3)ncn2)c1F` (racemic) [Example 314, rac-(1S*,2S*)-2-(6-cyano-2-fluoro-3-methoxyphenyl)-N-(6-(((6-cyclopropylimidazo[1,2-a]pyridin-2-yl)methyl)amino)pyrimidin-4-yl)cyclopropane-1-carboxamide]: the EC50 was 10 to 100 nM.

For the molecule `O=C(O)COc1ccc(Cl)cc1[C@H]1C[C@@H]1C(=O)Nc1cc(NCc2cn3cc(C4CC4)ccc3n2)ncn1` (racemic) [Example 315, rac-3-(4-chloro-2-((1S*,2S*)-2-((6-(((6-cyclopropylimidazo[1,2-a]pyridin-2-yl)methyl)amino)pyrimidin-4-yl)carbamoyl)cyclopropyl)phenoxy)acetic acid], the 50% effective concentration (EC50) fell in the range of 100 to 1000 nM.

With `O=C(Nc1cc(NCc2cn3cc(C4CC4)ccc3n2)ncn1)[C@H]1C[C@@H]1c1cc(Cl)ccc1-n1cnnn1` (racemic) [Example 316, rac-(1S*,2S*)-2-(5-chloro-2-(1H-tetrazol-1-yl)phenyl)-N-(6-(((6-cyclopropylimidazo[1,2-a]pyridin-2-yl)methyl)amino)pyrimidin-4-yl)cyclopropane-1-carboxamide], the EC50 was in the range of 1 to 10 nM.

`CN1C(=O)CN(c2cc(C3CC3)cn3cc(CNc4cc(NC(=O)C5CC5(F)c5cccc(Cl)c5)ncn4)nc23)C1=O` (racemic) [Example 329, rac-2-(3-chlorophenyl)-N-(6-(((6-cyclopropyl-8-(3-methyl-2,4-dioxoimidazolidin-1-yl)imidazo[1,2-a]pyridin-2-yl)methyl)amino)pyrimidin-4-yl)-2-fluorocyclopropane-1-carboxamide]: the half-maximal effective concentration (EC50) is 1 to 10 nM.

With `N#Cc1ccc(Cl)cc1[C@H]1C[C@@H]1C(=O)Nc1cc(NCc2cn3cc(C4CC4)cc(N4CCCC4=O)c3n2)ncn1` (racemic) [Example 334], the EC50 is under 1 nM.

For the molecule `O=C(Nc1cncc(NCc2cn3cc(C4CC4)ccc3n2)n1)[C@H]1C[C@@H]1c1cccc(Cl)c1` (racemic) [Example 345, (rac-(1S*,2S*))-2-(3-chlorophenyl)-N-(6-(((6-cyclopropylimidazo[1,2-a]pyridin-2-yl)methyl)amino)pyrazin-2-yl)cyclopropane-1-carboxamide], the concentration giving a half-maximal response (EC50) was in the range of 10 to 100 nM.

Turning to `O=C(Nc1nccc(NCc2cn3cc(C4CC4)ccc3n2)n1)[C@H]1C[C@@H]1c1cccc(Cl)c1` (racemic) [Example 346, (rac-(1S*,2S*))-2-(3-chlorophenyl)-N-(4-(((6-cyclopropylimidazo[1,2-a]pyridin-2-yl)methyl)amino)pyrimidin-2-yl)cyclopropane-1-carboxamide], the 50% effective concentration (EC50) was in the range of 1 to 10 nM.

For `O=C(Nc1ccnc(NCc2cn3cc(C4CC4)ccc3n2)n1)[C@H]1C[C@@H]1c1cccc(Cl)c1` (racemic) [Example 347, (rac-(1S*,2S*))-2-(3-chlorophenyl)-N-(2-(((6-cyclopropylimidazo[1,2-a]pyridin-2-yl)methyl)amino)pyrimidin-4-yl)cyclopropane-1-carboxamide], the EC50 is 10 to 100 nM.

For `O=C(Nc1cnnc(NCc2cn3cc(C4CC4)ccc3n2)c1)[C@H]1C[C@@H]1c1cccc(Cl)c1` (racemic) [Example 348, (rac-(1S*,2S*))-2-(3-chlorophenyl)-N-(6-(((6-cyclopropylimidazo[1,2-a]pyridin-2-yl)methyl)amino)pyridazin-4-yl)cyclopropane-1-carboxamide], the EC50 was in the range of 1 to 10 nM.

For the molecule `O=C(Nc1cc(NCc2cn3cc(C4CC4)ccc3n2)ncn1)[C@H]1C[C@@H]1c1cccc(C2CC2)c1` (racemic) [Example 351, rac-(1S*,2S*)—N-(6-(((6-cyclopropylimidazo[1,2-a]pyridin-2-yl)methyl)amino)pyrimidin-4-yl)-2-(3-cyclopropylphenyl)cyclopropane-1-carboxamide], the EC50 was over 6000 nM.

In the case of `O=C(Nc1cc(NCc2cn3cc(C4CC4)cc(-n4cnnc4)c3n2)ncn1)[C@H]1C[C@@H]1c1cccc(Cl)c1` (racemic) [Example 405, rac-(1S*,2S*)-2-(3-chlorophenyl)-N-(6-(((6-cyclopropyl-8-(4H-1,2,4-triazol-4-yl)imidazo[1,2-a]pyridin-2-yl)methyl)amino)pyrimidin-4-yl)cyclopropane-1-carboxamide], the EC50 is under 1 nM.

Take `CN1C(=O)[C@]2(C[C@H]2C(=O)Nc2cc(NCc3cn4cc(C5CC5)ccc4n3)ncn2)c2cc(Cl)ccc21` (racemic) [Example 413, rac-(1R*,2S*)-5′-chloro-N-(6-(((6-cyclopropylimidazo[1,2-a]pyridin-2-yl)methyl)amino)pyrimidin-4-yl)-1′-methyl-2′-oxospiro[cyclopropane-1,3′-indoline]-2-carboxamide]: the 50% effective concentration (EC50) is 100 to 1000 nM.

For the molecule `O=C(Nc1cc(NCc2cn3cc(C4CC4)ccc3n2)ncn1)[C@@H]1[C@@H](c2cccc(Cl)c2)C1(F)F` (racemic) [Example 503, rac-(1S*,3S*)-3-(3-chlorophenyl)-N-(6-(((6-cyclopropylimidazo[1,2-a]pyridin-2-yl)methyl)amino)pyrimidin-4-yl)-2,2-difluorocyclopropane-1-carboxamide], the EC50 lay within 1 to 10 nM.

As for `O=C(Nc1cc(NCc2cn3cc(C4CC4)ccc3n2)ncn1)[C@H]1C[C@@H]1c1ncn2ccc(Cl)c(F)c12` (racemic) [Example 504, rac-(1S*,2S*)-2-(7-chloro-8-fluoroimidazo[1,5-a]pyridin-1-yl)-N-(6-(((6-cyclopropylimidazo[1,2-a]pyridin-2-yl)methyl)amino)pyrimidin-4-yl)cyclopropane-1-carboxamide], the EC50 lay within 10 to 100 nM.

Regarding `O=C(Nc1cc(NCc2cn3cc(C4CC4)ccc3n2)ncn1)[C@@H]1C[C@]12C(=O)Nc1ccc(Cl)cc12` (racemic) [Example 509, rac-(1R*,2S*)-5′-chloro-N-(6-(((6-cyclopropylimidazo[1,2-a]pyridin-2-yl)methyl)amino)pyrimidin-4-yl)-2′-oxospiro[cyclopropane-1,3′-indoline]-2-carboxamide], the half-maximal effective concentration (EC50) is under 1 nM.

Turning to `O=C(Nc1cc(NCc2cn3cc(C4CC4)ccc3n2)ncn1)[C@@H]1C[C@@]12C(=O)Nc1ccc(Cl)cc12` (racemic) [Example 510, rac-(1R*,2R*)-5′-chloro-N-(6-(((6-cyclopropylimidazo[1,2-a]pyridin-2-yl)methyl)amino)pyrimidin-4-yl)-2′-oxospiro[cyclopropane-1,3′-indoline]-2-carboxamide], the concentration giving a half-maximal response (EC50) was 100 to 1000 nM.

For the molecule `O=C(Nc1cc(NCc2cn3cc(C4CC4)ccc3n2)ncn1)[C@H]1[C@H](F)[C@@H]1c1cccc(Cl)c1` (racemic) [Example 511, rac-(1R*,2R*,3S*)-2-(3-chlorophenyl)-N-(6-(((6-cyclopropylimidazo[1,2-a]pyridin-2-yl)methyl)amino)pyrimidin-4-yl)-3-fluorocyclopropane-1-carboxamide], the half-maximal effective concentration (EC50) lay in the range of 1 to 10 nM.

The EC50 is the concentration that produces a half-maximal response.
